Source: US20130123618A1, “Imaging Agents” (priority 2008, published 2013)

Tests used:
[1] = system: DU145, human prostate cancer cells implanted in flanks; assay: tissue distribution in SCID mice bearing DU145 tumors; format: in vivo; settings: for tissue distribution, blood / tissue distribution, bone / tissue distribution, brain / tissue distribution, heart / tissue distribution, kidney / tissue distribution, liver / tissue distribution, lung / tissue distribution, muscle / tissue distribution, pancreas / tissue distribution, spleen / tissue distribution, tumor: DU145 tumor-bearing SCID mice, tail vein, ave
Method: For the in vitro amino acid uptake studies, all cells can be grown to monolayer confluency in T-175 culture flasks [Corning, Corning, N.Y.] (approx. 1×10^8 cells/flask) in Dulbecco's Modified Eagle's Medium (DMEM) [Sigma, St. Louis, Mo.] in a humidified incubator (37° C., 5% CO2/95% air). Media are supplemented with 10% fetal calf serum [Hyclone, Logan, Utah], and antibiotics (10,000 U/ml penicillin and 10 mg/ml streptomycin) (Sigma, St. Louis, Mo.). For tissue culture passage, monolayer cells are detached by gentle trypsinization, resuspended in complete media, and split 1:10 into new T-flasks. Cultures are passaged weekly, and fed fresh media every 2 to 3 days. To initiate tumor growth in SCID mice, 1×10^6 cells are injected s.c. bilaterally into the flanks (inguinal region) of the recipient animals using a 1 ml syringe with a 27 gauge needle. Ex vivo experiments can be performed with animals containing tumors weighing between 500 mg and 1 g, as estimated by caliper measurement (tumor weight=(π/6)*abc, where a, b and c are the tumor length, width and height, respectively).
Tissue distribution of the compounds is measured in SCID mice (average weight, 20-25 g) bearing human tumors as follows. The candidate radioligands (20 uCi in 0.4 ml 0.9% NaCl) are injected into the tail vein of tumor-bearing mice. […] Tissues (blood, heart, liver, lungs, kidneys, bone, thyroid, muscle, brain and tumor) are excised, rinsed in saline, and blotted dry. The tissues are weighed, placed into 12×75 mm glass vials, the radioactivity determined with a gamma counter, and the percent dose/gram calculated. Total activities of blood and muscle are calculated by assuming that they account for 7% and 40% of the total body mass, respectively.
Tables 3-7 show the results of the biodistribution studies with the separate enantiomers of anti-2-[^18F]FACPC and racemic anti-2-[^18F]FACBC as a comparison in SCiD mice implanted in their flanks with A549, human lung cancer cells and DU145, human prostate cancer cells.

[2] = system: DU145 Human Prostate carcinoma cells; assay: in vitro amino acid uptake in DU145 cells; format: cell-based
Text: (§1) Compounds have been evaluated in vitro for tumor binding specificity (i.e. uptake cells) using a variety of tumor cell lines available in the art, along with reference compounds such as Me-AlB and BCH. Detailed description of these assays can be found in Martarello et al. (2002) Journal of Medicinal Chemistry, 45:2250-2259 and McConathy et al. (2003) Nuclear Medicine and Biology, 30:477-490. These so called “amino acid uptake studies” are typically carried out with radiolabeled compounds in at least five phenotypically different human tumor cell lines (e.g., A549 lung carcinoma, MB468 breast carcinoma, DU145 prostate carcinoma-androgen independent, LnCap-androgen dependent, SKOV3 ovarian carcinoma, U87 glial blastoma, MIA PaCa-2 pancreas carcinoma, MDA MB231 breast carcinoma). These tumor cell lines can be grown either in vitro or in vivo with severe combined immunodeficiency (SCID) mice as a host. The afore-mentioned tumor cell lines are available at the Winship Cancer Institute of Emory University.
(§2) For the in vitro amino acid uptake studies, all cells can be grown to monolayer confluency in T-175 culture flasks [Corning, Corning, N.Y.] (approx. 1×10^8 cells/flask) in Dulbecco's Modified Eagle's Medium (DMEM) [Sigma, St. Louis, Mo.] in a humidified incubator (37° C., 5% CO2/95% air). […]
(§3) In the in vitro studies the uptake rate of each amino acid compound is measured in each tumor line, as well as the dominant transport mechanisms of each tumor cell line. After trypsinization, cells are resuspended in serum-free media, then counted on a hemocytometer, with viability assessed through Trypan blue staining. […] The vials are placed in a Cobra-II gamma counter (Packard, Meriden, Conn.), with the activity per cell number determined. […] Saline washes are performed as described above, and the filtered cells' radioactivity determined on the gamma counter. […]
(§4) The uptake of all compounds were measured in human and rat cancer cell lines and the dominant transport (“A” and “L”) mechanism of each culture were determined. […]

[3] = system: U87 Human Glioma cells; assay: in vitro amino acid uptake in U87 cells; format: cell-based
Text: as §1, §2, §3, §4

[4] = system: 9L Rat gliosarcoma cells; assay: in vitro amino acid uptake in 9L cells; format: cell-based
Text: as §1, §2, §3, §4

[5] = system: MIA PaCa-2 Human Pancreas carcinoma cells; assay: in vitro amino acid uptake in MIA PaCa-2 cells; format: cell-based
Method: (§5) Compounds have been evaluated in vitro for tumor binding specificity (i.e. uptake cells) using a variety of tumor cell lines available in the art, along with reference compounds such as Me-AlB and BCH. Detailed description of these assays can be found in Martarello et al. (2002) Journal of Medicinal Chemistry, 45:2250-2259 and McConathy et al. (2003) Nuclear Medicine and Biology, 30:477-490. […]
as §3, §4

[6] = system: LnCap Human Prostate carcinoma cells; assay: in vitro amino acid uptake in LnCap cells; format: cell-based
Method: as §5, §3, §4

[7] = system: MDA MB231 Human Breast carcinoma cells; assay: in vitro amino acid uptake in MDA MB231 cells; format: cell-based
Method: as §5, §3, §4

NC1(C(=O)O)CCC1[18F] (racemic) [racemic anti-2-[^18F]FACBC]
tissue distribution, blood ([1]; 15 min): 2.80 percent dose/gram
tissue distribution, bone ([1]; 15 min): 1.06 percent dose/gram
tissue distribution, brain ([1]; 15 min): 0.17 percent dose/gram
tissue distribution, heart ([1]; 15 min): 2.07 percent dose/gram
tissue distribution, kidney ([1]; 15 min): 6.82 percent dose/gram
tissue distribution, liver ([1]; 15 min): 2.32 percent dose/gram
tissue distribution, lung ([1]; 15 min): 3.35 percent dose/gram
tissue distribution, muscle ([1]; 15 min): 0.83 percent dose/gram
tissue distribution, pancreas ([1]; 15 min): 29.02 percent dose/gram
tissue distribution, spleen ([1]; 15 min): 4.38 percent dose/gram
tissue distribution, tumor ([1]; 15 min): 2.95 percent dose/gram
tissue distribution, blood ([1]; 30 min): 1.86 percent dose/gram
tissue distribution, bone ([1]; 30 min): 1.63 percent dose/gram
tissue distribution, brain ([1]; 30 min): 0.16 percent dose/gram
tissue distribution, heart ([1]; 30 min): 1.82 percent dose/gram
tissue distribution, kidney ([1]; 30 min): 4.47 percent dose/gram
tissue distribution, liver ([1]; 30 min): 2.09 percent dose/gram
tissue distribution, lung ([1]; 30 min): 2.32 percent dose/gram
tissue distribution, muscle ([1]; 30 min): 1.00 percent dose/gram
tissue distribution, pancreas ([1]; 30 min): 29.29 percent dose/gram
tissue distribution, spleen ([1]; 30 min): 4.74 percent dose/gram
tissue distribution, tumor ([1]; 30 min): 3.54 percent dose/gram
tissue distribution, blood ([1]; 60 min): 0.80 percent dose/gram
tissue distribution, bone ([1]; 60 min): 2.22 percent dose/gram
tissue distribution, brain ([1]; 60 min): 0.18 percent dose/gram
tissue distribution, heart ([1]; 60 min): 1.32 percent dose/gram
tissue distribution, kidney ([1]; 60 min): 1.82 percent dose/gram
tissue distribution, liver ([1]; 60 min): 1.23 percent dose/gram
tissue distribution, lung ([1]; 60 min): 1.18 percent dose/gram
tissue distribution, muscle ([1]; 60 min): 1.15 percent dose/gram
tissue distribution, pancreas ([1]; 60 min): 15.01 percent dose/gram
tissue distribution, spleen ([1]; 60 min): 2.85 percent dose/gram
tissue distribution, tumor ([1]; 60 min): 2.57 percent dose/gram
tissue distribution, blood ([1]; 120 min): 0.39 percent dose/gram
tissue distribution, bone ([1]; 120 min): 0.66 percent dose/gram
tissue distribution, brain ([1]; 120 min): 0.13 percent dose/gram
tissue distribution, heart ([1]; 120 min): 0.82 percent dose/gram
tissue distribution, kidney ([1]; 120 min): 0.78 percent dose/gram
tissue distribution, liver ([1]; 120 min): 0.43 percent dose/gram
tissue distribution, lung ([1]; 120 min): 0.46 percent dose/gram
tissue distribution, muscle ([1]; 120 min): 0.72 percent dose/gram
tissue distribution, pancreas ([1]; 120 min): 5.92 percent dose/gram
tissue distribution, spleen ([1]; 120 min): 0.87 percent dose/gram
tissue distribution, tumor ([1]; 120 min): 1.85 percent dose/gram
uptake of radioactivity in the tumors compared with muscle ([1]; DU145 tumors, SCID mice, time points sampled post injection): greater than muscle
% Dose uptake per 0.5 × 10−6 Cells [2]: 6.4 % Dose/0.5 × 10^−6
% Dose uptake per 0.5 × 10−6 Cells [3]: 8.3 % Dose/0.5 × 10^−6
% Dose uptake per 0.5 × 10−6 Cells [4]: 2.3 % Dose/0.5 × 10^−6

N[C@]1(C(=O)O)CCC[C@@H]1[18F] (single isomer, unassigned; enantiomer 1) [Enantiomer 1, anti-2-[^18F]FACPC]
in vivo uptake compared with racemic 2-[^18F]FACBC ([1]; DU 145 cells implanted subcutaneously in flanks of SCID mice): significantly higher in vivo uptake than racemic 2-[^18F]FACBC
tissue distribution, blood ([1]; 15 min): 3.69 percent dose/gram
tissue distribution, bone ([1]; 15 min): 2.89 percent dose/gram
tissue distribution, brain ([1]; 15 min): 0.70 percent dose/gram
tissue distribution, heart ([1]; 15 min): 3.76 percent dose/gram
tissue distribution, kidney ([1]; 15 min): 8.83 percent dose/gram
tissue distribution, liver ([1]; 15 min): 4.34 percent dose/gram
tissue distribution, lung ([1]; 15 min): 4.38 percent dose/gram
tissue distribution, muscle ([1]; 15 min): 2.23 percent dose/gram
tissue distribution, pancreas ([1]; 15 min): 47 percent dose/gram
tissue distribution, spleen ([1]; 15 min): 7.4 percent dose/gram
tissue distribution, tumor ([1]; 15 min): 3.82 percent dose/gram
tissue distribution, blood ([1]; 30 min): 2.44 percent dose/gram
tissue distribution, bone ([1]; 30 min): 3.06 percent dose/gram
tissue distribution, brain ([1]; 30 min): 0.49 percent dose/gram
tissue distribution, heart ([1]; 30 min): 2.71 percent dose/gram
tissue distribution, kidney ([1]; 30 min): 5.36 percent dose/gram
tissue distribution, liver ([1]; 30 min): 2.74 percent dose/gram
tissue distribution, lung ([1]; 30 min): 2.78 percent dose/gram
tissue distribution, muscle ([1]; 30 min): 2.31 percent dose/gram
tissue distribution, pancreas ([1]; 30 min): 28 percent dose/gram
tissue distribution, spleen ([1]; 30 min): 6.70 percent dose/gram
tissue distribution, tumor ([1]; 30 min): 3.54 percent dose/gram
tissue distribution, blood ([1]; 60 min): 1.7 percent dose/gram
tissue distribution, bone ([1]; 60 min): 2.58 percent dose/gram
tissue distribution, brain ([1]; 60 min): 0.62 percent dose/gram
tissue distribution, heart ([1]; 60 min): 2.2 percent dose/gram
tissue distribution, kidney ([1]; 60 min): 4.07 percent dose/gram
tissue distribution, liver ([1]; 60 min): 1.96 percent dose/gram
tissue distribution, lung ([1]; 60 min): 1.91 percent dose/gram
tissue distribution, muscle ([1]; 60 min): 2.15 percent dose/gram
tissue distribution, pancreas ([1]; 60 min): 22 percent dose/gram
tissue distribution, spleen ([1]; 60 min): 2.79 percent dose/gram
tissue distribution, tumor ([1]; 60 min): 3.07 percent dose/gram
% Dose uptake per 0.5 × 10−6 Cells [5]: 6.8 % Dose/0.5 × 10^−6
% Dose uptake per 0.5 × 10−6 Cells [2]: 8 % Dose/0.5 × 10^−6
% Dose uptake per 0.5 × 10−6 Cells [6]: 6.5 % Dose/0.5 × 10^−6
% Dose uptake per 0.5 × 10−6 Cells [3]: 28 % Dose/0.5 × 10^−6
% Dose uptake per 0.5 × 10−6 Cells [7]: 9.1 % Dose/0.5 × 10^−6
% Dose uptake per 0.5 × 10−6 Cells [4]: 12 % Dose/0.5 × 10^−6
